# Assays:
# [1] = system: mice models; conditions: Chang et al., 2016, Childs et al.; cited from earlier work
# [2] = system: Chk1 kinase; test: S280 phosphorylation of Chk1 kinase by Western blot in H1299 cells; assay type: cell-based; conditions: 10 μM for 48 hours
# Experimental: When each inhibitor (U126 and BI-D1870) was administered to cancer cells, PGAM-Chk1 kinase binding was inhibited, and glycolytic metabolism decreased (Mikawa et al., 2020). RSK kinase was already known to directly control the phosphorylation of the S280 residue of Chk1 kinase (Li et al., 2012, Mol Biol Cell 23, 1582-1592). […] Specifically, cancer cell line H1299 cells were treated with the MEK kinase inhibitor (U126) at a concentration of 10 μM for 48 hours. The treated cells were collected, and proteins were extracted and then Western blotted. It was confirmed that the S280 phosphorylation of Chk1 kinase was suppressed although the protein level of Chk1 kinase was not changed. In addition, the present inventors prepared S280A mutants of Chk1 kinase. […] Specifically, PGAM and Chk1 kinase genes tagged with Nano-Bit tags were introduced into IMR90 cells to prepare a cell line capable of stable expression. At this time, three types of Chk1, i.e., wild-type Chk1 and S280A mutant Chk1 or S280D mutant Chk1, were each introduced into the cells. An oncogenic mutated Ras gene was introduced into these cells by retroviral infection to acquire stress senescent cells. The obtained senescent cells were used to measure intracellular luciferase luminescence signals by Nano-Bit for each.
# [3] = system: PGAM-Chk1 kinase binding; conditions: cancer cells; Mikawa et al., 2020; cited from earlier work
# [4] = biological target: T1, PGAM-Chk1 binding (Homo sapiens, UniProt O14757+P18669); test: Nano-Bit PGAM-Chk1 binding in cancer cell line H1299; assay type: cell-based; conditions: H1299 cells; 40 μM for 12, 24, and 48 hours
# T1 construct: expressed in transfected cells
# Description: PGAM and Chk1 kinase genes tagged with Nano-Bit tags were introduced into the cancer cell line H1299 to prepare a cell line capable of stable expression. […] The treated cells were used to measure intracellular luciferase luminescence signals by Nano-Bit for each.
# T1 sequence (P18669 whole entry, one chain of several): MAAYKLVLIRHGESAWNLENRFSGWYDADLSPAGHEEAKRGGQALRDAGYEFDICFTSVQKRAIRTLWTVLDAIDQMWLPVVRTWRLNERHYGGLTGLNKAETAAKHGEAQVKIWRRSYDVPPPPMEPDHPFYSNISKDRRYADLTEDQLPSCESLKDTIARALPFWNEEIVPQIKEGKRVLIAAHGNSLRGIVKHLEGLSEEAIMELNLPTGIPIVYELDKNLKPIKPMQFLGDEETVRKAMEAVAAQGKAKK
# [5] = system: IMR90 cells; test: Senolysis / cell death of young and Ras-induced senescent IMR90 cells; assay type: cell-based, human
# Description: Ras gene with oncogenic mutation was introduced into young cells (within 1 month of continuous culture) of IMR90 cells by retroviral infection to acquire senescent cells. […] The control received only DMSO treatment. Representative images of cells observed under a microscope are shown (FIG. 11).
# An oncogenic mutated Ras gene was introduced into young cells (within 1 month of continuous culture) of IMR90 cells by retroviral infection to acquire stress-induced senescent cells. The young cells and the senescent cells were both treated with different concentrations of the RSK kinase inhibitor BI-D1870 for 96 hours to evaluate cell death.
# An oncogenic mutated Ras gene was introduced into young cells (within 1 month of continuous culture) of IMR90 cells by retroviral infection to acquire stress-induced senescent cells. The young cells and the senescent cells of IMR90 were both transfected with an RSK1 siRNA (two types of siRNA #1 (SEQ ID NO: 7) or #2 (SEQ ID NO: 8) having different target sequences) or a control to knock down RSK1. Representative images of cells observed under a microscope are shown (upper diagram in FIG. 20).
# An oncogenic Ras was introduced into young cells (within 1 month of continuous culture) of IMR90 cells to induce senescent cells (OIS). The young cells and the senescent cells of IMR90 were transfected with two HIF-2α-specific siRNAs (SEQ ID NO: 9 and SEQ ID NO: 10) having different target sequences to knock down HIF-2α.
# An oncogenic Ras was introduced into young cells (within 1 month of continuous culture) of IMR90 cells to induce senescent cells (OIS). The young cells and the senescent cells of IMR90 were transfected with a BIM-specific siRNA to knock down BIM.
# An oncogenic Ras was introduced into young cells (within 1 month of continuous culture) of IMR90 cells to induce senescent cells (OIS). In the young cells and the senescent cells of IMR90, HIF-2α alone or both HIF-2α and BIM were knocked down by using their respective specific siRNAs (SEQ ID NO: 9, SEQ ID NO: 10), and cell death was confirmed (FIG. 28).
# The latter information consists of 12,655 ChIP datasets from 903 antigens (transcription factors and epigenetic regulators).
# [6] = system: p53; test: p53 activation (Western blot of p53 and p21) in young IMR90 cells; assay type: cell-based, human; conditions: 20 μM for 48 hours
# Description: After the treatment, proteins were extracted from the cells to carry out Western blotted.
# [7] = biological target: T2, PGAM-Chk1 binding (Homo sapiens, UniProt O14757+P18669); test: PGAM-Chk1 binding by anti-Chk1 immunoprecipitation and anti-PGAM Western blotting in Ras-induced senescent IMR90 cells; assay type: cell-based
# T2 construct: endogenous in cells; host or cells: IMR90 human primary fibroblasts made senescent by retroviral oncogenic Ras
# T2 sequence (P18669 2-254 limits assumed): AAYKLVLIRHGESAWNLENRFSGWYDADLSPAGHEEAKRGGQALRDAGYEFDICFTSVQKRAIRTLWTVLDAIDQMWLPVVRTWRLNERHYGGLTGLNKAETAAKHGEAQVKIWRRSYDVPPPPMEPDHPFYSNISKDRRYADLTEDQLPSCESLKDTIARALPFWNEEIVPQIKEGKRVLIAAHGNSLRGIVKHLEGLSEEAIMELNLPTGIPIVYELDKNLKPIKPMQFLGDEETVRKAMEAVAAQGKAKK
# T2 sequence (O14757 1-476): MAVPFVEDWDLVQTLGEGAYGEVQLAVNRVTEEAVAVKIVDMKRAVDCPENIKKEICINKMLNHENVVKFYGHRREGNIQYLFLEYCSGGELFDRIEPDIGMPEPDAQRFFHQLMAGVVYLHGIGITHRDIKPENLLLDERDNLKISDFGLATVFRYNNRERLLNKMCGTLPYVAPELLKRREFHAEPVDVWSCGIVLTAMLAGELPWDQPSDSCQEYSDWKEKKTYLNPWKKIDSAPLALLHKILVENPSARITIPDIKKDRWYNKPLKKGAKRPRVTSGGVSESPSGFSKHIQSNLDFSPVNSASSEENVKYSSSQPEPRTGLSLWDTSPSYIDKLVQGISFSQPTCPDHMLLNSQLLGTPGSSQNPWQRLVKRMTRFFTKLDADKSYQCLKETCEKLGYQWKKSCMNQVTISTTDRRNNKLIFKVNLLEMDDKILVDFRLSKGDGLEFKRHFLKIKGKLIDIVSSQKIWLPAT
# Experimental: Human primary fibroblasts, IMR90 cells, were obtained from the JCRB Cell Bank. An oncogenic Ras mutation was retrovirally introduced into young cells (within 1 month of continuous culture) of the IMR90 cells to induce cellular senescence. […] After that, these cells were treated with MG132 for 6 hours, and cell lysates were prepared. The obtained cell lysates were immunoprecipitated with an anti-Chk1 antibody. The resulting immunoprecipitate was used for Western blotting with an anti-PGAM antibody to evaluate PGAM-Chk1 binding.
# Next, in the same manner as above, IMR90 cells were used to prepare stress-induced senescent cells by introducing an oncogenic mutated Ras gene. The senescent cells were transfected with an RSK1 siRNA (SEQ ID NO: 7) or a control to knock down RSK1. The resulting cells were collected, and proteins were extracted. The resulting protein extract was immunoprecipitated with an anti-Chk1 antibody. The resulting immunoprecipitate was used for Western blotting with an anti-PGAM antibody to evaluate PGAM-Chk1 binding.
# [8] = system: glycolytic metabolism; test: Glycolytic metabolism (glucose consumption, lactate production) in etoposide-induced senescent IMR90 cells; assay type: cell-based, human; conditions: 20 μM or 40 μM for 48 hours
# Experimental: Next, young cells (within 1 month of continuous culture) of the IMR90 cells were treated with 100 μM etoposide for 48 hours to acquire senescent cells. […] After the nutlin treatment, the medium was collected, and glucose consumption was evaluated and lactate production was measured. The lactate level is calculated as a value (μmol/mg/h) obtained by measuring the amount of lactate secreted into the medium per hour (μmol/h) and correcting the same by the total cell protein (mg) and is expressed as a value relative to the actual value on day 0. The glucose consumption is calculated as a value (μmol/mg/h) obtained by measuring the amount of glucose decreased from the medium per hour (μmol/h) and correcting the same by the total cell protein (mg) and is expressed as a value relative to the actual value on day 0. Glucose and lactate were measured by using a Glucose assay kit (BioVision) (upper diagram in FIG. 8) and a Lactate assay kit (BioVision) (lower diagram in FIG. 8), respectively.
# [9] = system: BIM gene; test: BIM gene expression in Ras-induced senescent IMR90 cells; assay type: cell-based, human; conditions: senescent (OIS) IMR90 cells; HIF-2α knockdown by siRNA
# Experimental: An oncogenic Ras was introduced into young cells (within 1 month of continuous culture) of IMR90 cells to induce senescent cells (OIS).
# An oncogenic Ras was introduced into young cells (within 1 month of continuous culture) of IMR90 cells to induce senescent cells (OIS). The senescent cells were transfected with an HIF-2α-specific siRNA (SEQ ID NO: 9) to knock down HIF-2α. After that, the expression of the BIM gene, which is an apoptosis-inducing gene, was analyzed (FIG. 26).
# [10] = system: Chk1 kinase; test: S280 phosphorylation of Chk1 kinase after RSK1 knockdown in senescent IMR90 cells; assay type: cell-based, human; conditions: Ras-induced senescent IMR90 cells; RSK1 knockdown by siRNA
compound,measurement,setting,value
CC1(C)CCC(c2ccc(Cl)cc2)=C(CN2CCN(c3ccc(C(=O)NS(=O)(=O)c4ccc(N[C@H](CCN5CCOCC5)CSc5ccccc5)c(S(=O)(=O)C(F)(F)F)c4)cc3)CC2)C1 [ABT263],aging-relevant dysfunctions and artherosclerosis,[1],alleviated
N#CC(=C(/N)Sc1ccccc1N)/C(C#N)=C(/N)Sc1ccccc1N [U126],S280 phosphorylation of Chk1 kinase,[2],suppressed
same,protein level of Chk1 kinase,[2],not changed
same,PGAM-Chk1 kinase binding,[3],inhibited
same,glycolytic metabolism,[3],decreased
COc1ccc(C2=N[C@@H](c3ccc(Cl)cc3)[C@@H](c3ccc(Cl)cc3)N2C(=O)N2CCNC(=O)C2)c(OC(C)C)c1 [nutlin 3a],luciferase luminescence signal by Nano-Bit (PGAM-Chk1 binding),[4],treatment time-dependent decrease
same,cell death observed under a microscope,"[5]; young and Ras-induced senescent IMR90 cells, 40 μM for 72 hours",cell death and cell number decrease were observed in both the young cells and the senescent cells
same,protein level of p21,[6],markedly increased
same,protein level of p53,[6],markedly increased
same,PGAM-Chk1 binding (interaction),"[7]; 20 μM or 40 μM for 48 hours, then MG132 6 hours",inhibit PGAM-Chk1 interaction to the same extent
same,glucose consumption,[8],suppressed in a dose-dependent manner
same,lactate production,[8],suppressed in a dose-dependent manner
"HIF-2α-specific siRNA (SEQ ID NO: 9): HIF-2α-specific siRNA, SEQ ID NO: 9 (CACCUACUGUGAUGACAGA; listed as RNA, chemistry not given here)",cell death after HIF-2α knockdown,"[5]; young and Ras-induced senescent (OIS) IMR90 cells, siRNA transfection",selective cell death (senolysis)
same,expression of the apoptosis-inducing gene BIM,[9],increased
"RSK1 siRNA #1: RSK1 siRNA including the sequence of SEQ ID NO: 7 (CACUGAUUCUGAAGGCGAA; listed as RNA, chemistry not given here)",senolysis phenomenon with knockdown of RSK1,"[5]; young and Ras-induced senescent IMR90 cells, siRNA transfection","young cells are normal, but senescent cells selectively die"
same,S280 phosphorylation of Chk1 kinase,[10],decreased
same,PGAM-Chk1 binding,[7]; RSK1 knockdown by siRNA,inhibition of PGAM-Chk1
